This note sets out measurements from publication PMC4950264 (Molecular Ecology, 2016).

Structures are written as SMILES.

The test concerns the target T1, CYP6Z1 (Anopheles funestus, UniProt Z9NKG6IF05).
T1 sequence (Z9NKG6IF05 1-492): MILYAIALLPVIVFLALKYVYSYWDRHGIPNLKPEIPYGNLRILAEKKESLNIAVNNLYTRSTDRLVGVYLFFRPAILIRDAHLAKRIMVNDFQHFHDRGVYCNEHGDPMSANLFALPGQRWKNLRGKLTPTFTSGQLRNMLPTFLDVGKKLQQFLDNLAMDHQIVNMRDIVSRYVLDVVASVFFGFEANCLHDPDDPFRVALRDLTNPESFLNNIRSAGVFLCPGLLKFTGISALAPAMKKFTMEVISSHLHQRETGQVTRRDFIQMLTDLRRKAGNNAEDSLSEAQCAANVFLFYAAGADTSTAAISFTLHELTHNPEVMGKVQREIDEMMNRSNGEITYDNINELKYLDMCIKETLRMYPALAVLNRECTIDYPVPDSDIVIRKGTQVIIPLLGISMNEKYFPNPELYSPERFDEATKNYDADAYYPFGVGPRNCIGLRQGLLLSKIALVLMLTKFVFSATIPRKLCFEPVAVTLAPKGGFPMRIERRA

As for `Clc1ccc(C(c2ccc(Cl)cc2)C(Cl)(Cl)Cl)cc1` [DDT], the IC50 worked out at 8.9 µM.

Turning to `CNC(=O)Oc1cccc2c1OC(C)(C)O2` [bendiocarb], half-maximal inhibition (IC50) required 9.5 µM.
